The text below walks through data of the supplement of paper PMC10307832.

Test in all cases: relative viability (nuclei count vs DMSO), 5 days (fraction); higher = more cells survive
Compound in experiment [1]: CC(C)=CC[C@@H](O)C1=CC(=O)c2c(O)ccc(O)c2C1=O [Shikonin] + CC(C)C[C@H](NC(=O)[C@H](Cc1ccccc1)NC(=O)c1cnccn1)B(O)O [Bortezomib] (partner 0.002 µM)
The essentials: (§1)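 A single step with final 0.05% Triton X-100, 1% formaldehyde and 1 ug/ml Hoechst fixed the cells and stained nuclei 5 days after treatment. Lung cancer cell lines in 1536-well plates had been treated by pin tool the day after seeding with one drug alone or a fixed anchor-drug dose plus five library-drug doses (not always all listed) in √10 steps, and nuclei were counted on 4× images. Relative viability is the ratio of nuclei in treated wells to nuclei in vehicle wells, taken as the median of duplicate plates.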

Compound in experiment [2]: CC(C)=CC[C@@H](O)C1=CC(=O)c2c(O)ccc(O)c2C1=O [Shikonin] + CS(=O)(=O)N1CCN(Cc2cc3nc(-c4cccc5[nH]ncc45)nc(N4CCOCC4)c3s2)CC1 [Pictilisib] (partner 1 µM)
A digest of the protocol: as §1

Compound in experiment [3]: CC(C)=CC[C@@H](O)C1=CC(=O)c2c(O)ccc(O)c2C1=O [Shikonin] + O=C(c1cc(Cc2n[nH]c(=O)c3ccccc23)ccc1F)N1CCN(C(=O)C2CC2)CC1 [Olaparib] (partner 8 µM)
A digest of the protocol:
as §1

Compound in experiment [4]: CC(C)N(CCCNC(=O)Nc1ccc(C(C)(C)C)cc1)C[C@H]1O[C@@H](n2ccc3c(N)ncnc32)[C@H](O)[C@@H]1O + Cc1nc(Nc2ncc(C(=O)Nc3c(C)cccc3Cl)s2)cc(N2CCN(CCO)CC2)n1 [Dasatinib] (partner 0.075 µM)
The essentials: as §1

Consider Calu-6, for which the relative viability was 1.1 in experiment [1] (first compound 0.01 µM); 1.2 in experiment [1] (first compound 0.1 µM); 0.878 in experiment [1] (first compound 0.3162 µM); 0.674 in experiment [1] (first compound 1 µM); 1.15 in experiment [2] (first compound 0.01 µM); 1.03 in experiment [2] (first compound 0.1 µM). Further, the relative viability in experiment [2] (first compound 0.3162 µM) turned out to be 0.921; in experiment [2] (first compound 1 µM) it was 0.756; in experiment [3] (first compound 0.01 µM), 0.6; in experiment [3] (first compound 0.1 µM) it was 0.695; in experiment [3] (first compound 0.3162 µM) it was 0.556; in experiment [3] (first compound 1 µM), 0.356.

As to ChaGo-K-1, the relative viability in experiment [1] (first compound 0.01 µM) turned out to be 0.957; in experiment [1] (first compound 0.1 µM) it was 1.35; in experiment [1] (first compound 0.3162 µM), 0.911; in experiment [1] (first compound 1 µM), 1.53; in experiment [2] (first compound 0.01 µM), 0.677; in experiment [2] (first compound 0.1 µM), 1.16. Further, the relative viability in experiment [2] (first compound 0.3162 µM) was determined as 0.699; in experiment [2] (first compound 1 µM), 1.27; in experiment [3] (first compound 0.01 µM) it was 0.425; in experiment [3] (first compound 0.1 µM), 0.438; in experiment [3] (first compound 0.3162 µM), 0.387; in experiment [3] (first compound 1 µM), 0.462. In addition, the relative viability in experiment [4] (first compound 0.08 µM) worked out at 0.532; in experiment [4] (first compound 0.253 µM), 0.672; in experiment [4] (first compound 0.8 µM), 0.556; in experiment [4] (first compound 2.53 µM), 0.552; in experiment [4] (first compound 8 µM), 0.497.

For the cell line EBC-1, the relative viability was determined as 0.604 in experiment [1] (first compound 0.01 µM); 0.48 in experiment [1] (first compound 0.1 µM); 0.644 in experiment [1] (first compound 0.3162 µM); 0.526 in experiment [1] (first compound 1 µM); 0.331 in experiment [2] (first compound 0.01 µM); 0.353 in experiment [2] (first compound 0.1 µM). Besides, the relative viability in experiment [2] (first compound 0.3162 µM) is 0.369; in experiment [2] (first compound 1 µM), 0.34; in experiment [3] (first compound 0.01 µM), 0.764; in experiment [3] (first compound 0.1 µM), 0.698; in experiment [3] (first compound 0.3162 µM) it was 0.758; in experiment [3] (first compound 1 µM), 0.602.

As to EKVX, the relative viability in experiment [1] (first compound 0.01 µM) was 0.995; in experiment [1] (first compound 0.1 µM), 1.81; in experiment [1] (first compound 0.3162 µM), 1.28; in experiment [1] (first compound 1 µM), 1.18; in experiment [2] (first compound 0.01 µM), 0.46; in experiment [2] (first compound 0.1 µM), 0.451. Also, the relative viability was 0.496 in experiment [2] (first compound 0.3162 µM); 0.448 in experiment [2] (first compound 1 µM); 0.922 in experiment [3] (first compound 0.01 µM); 0.907 in experiment [3] (first compound 0.1 µM); 0.889 in experiment [3] (first compound 0.3162 µM); 0.798 in experiment [3] (first compound 1 µM). For the same cell line, the relative viability in experiment [4] (first compound 0.08 µM) came to 0.571; in experiment [4] (first compound 0.253 µM) it was 0.502; in experiment [4] (first compound 0.8 µM), 0.509; in experiment [4] (first compound 2.53 µM) it was 0.517; in experiment [4] (first compound 8 µM), 0.524.

As to EMC-BAC-2, the relative viability in experiment [1] (first compound 0.01 µM) stood at 1.05; in experiment [1] (first compound 0.1 µM), 1.18; in experiment [1] (first compound 0.3162 µM) it was 1.21; in experiment [1] (first compound 1 µM), 1.07; in experiment [2] (first compound 0.01 µM), 0.541; in experiment [2] (first compound 0.1 µM), 0.536. Moreover, the relative viability stood at 0.593 in experiment [2] (first compound 0.3162 µM); 0.654 in experiment [2] (first compound 1 µM); 0.484 in experiment [3] (first compound 0.01 µM); 0.562 in experiment [3] (first compound 0.1 µM); 0.486 in experiment [3] (first compound 0.3162 µM); 0.427 in experiment [3] (first compound 1 µM). Moreover, the relative viability in experiment [4] (first compound 0.08 µM) came out at 0.349; in experiment [4] (first compound 0.253 µM), 0.36; in experiment [4] (first compound 0.8 µM) it was 0.297; in experiment [4] (first compound 2.53 µM), 0.359; in experiment [4] (first compound 8 µM), 0.37.

On to EPLC-272H, for which the relative viability in experiment [1] (first compound 0.01 µM) stood at 0.76; in experiment [1] (first compound 0.1 µM), 0.923; in experiment [1] (first compound 0.3162 µM) it was 0.957; in experiment [1] (first compound 1 µM), 0.923; in experiment [2] (first compound 0.01 µM) it was 0.299; in experiment [2] (first compound 0.1 µM), 0.383. Further, the relative viability in experiment [2] (first compound 0.3162 µM) was 0.292; in experiment [2] (first compound 1 µM), 0.36; in experiment [3] (first compound 0.01 µM) it was 0.553; in experiment [3] (first compound 0.1 µM) it was 0.63; in experiment [3] (first compound 0.3162 µM), 0.57; in experiment [3] (first compound 1 µM) it was 0.586. Further, the relative viability in experiment [4] (first compound 0.08 µM) worked out at 0.354; in experiment [4] (first compound 0.253 µM), 0.394; in experiment [4] (first compound 0.8 µM), 0.508; in experiment [4] (first compound 2.53 µM), 0.373; in experiment [4] (first compound 8 µM), 0.439.

H3255: the relative viability stood at 0.755 in experiment [1] (first compound 0.01 µM); 1.09 in experiment [1] (first compound 0.1 µM); 0.92 in experiment [1] (first compound 0.3162 µM); 1.03 in experiment [1] (first compound 1 µM); 0.487 in experiment [2] (first compound 0.01 µM); 0.477 in experiment [2] (first compound 0.1 µM). For the same cell line, the relative viability in experiment [2] (first compound 0.3162 µM) worked out at 0.495; in experiment [2] (first compound 1 µM), 0.427; in experiment [3] (first compound 0.01 µM), 0.552; in experiment [3] (first compound 0.1 µM) it was 0.542; in experiment [3] (first compound 0.3162 µM) it was 0.597; in experiment [3] (first compound 1 µM), 0.509. Besides, the relative viability in experiment [4] (first compound 0.08 µM) came to 0.507; in experiment [4] (first compound 0.253 µM), 0.354; in experiment [4] (first compound 0.8 µM) it was 0.434; in experiment [4] (first compound 2.53 µM), 0.282; in experiment [4] (first compound 8 µM), 0.367.

In the case of HARA, the relative viability stood at 1.16 in experiment [1] (first compound 0.01 µM); 1.24 in experiment [1] (first compound 0.1 µM); 1.16 in experiment [1] (first compound 0.3162 µM); 1.24 in experiment [1] (first compound 1 µM); 0.226 in experiment [2] (first compound 0.01 µM); 0.527 in experiment [2] (first compound 0.1 µM). For the same cell line, the relative viability in experiment [2] (first compound 0.3162 µM) is 0.477; in experiment [2] (first compound 1 µM), 0.43; in experiment [3] (first compound 0.01 µM) it was 0.557; in experiment [3] (first compound 0.1 µM), 0.7; in experiment [3] (first compound 0.3162 µM), 0.492; in experiment [3] (first compound 1 µM) it was 0.574. For the same cell line, the relative viability was determined as 0.27 in experiment [4] (first compound 0.08 µM); 0.282 in experiment [4] (first compound 0.253 µM); 0.278 in experiment [4] (first compound 0.8 µM); 0.22 in experiment [4] (first compound 2.53 µM); 0.244 in experiment [4] (first compound 8 µM).
